Test results reported in article PMC12606464, “Investigating NFE2L1 activators for targeted protein aggregate clearance: a follow-up study” (RSC Medicinal Chemistry, 2025).

What was measured:
[1] = system: chymotrypsin-like activity of the 26S proteasome; assay: Proteasome activity assay in MCF7 cell lysates; format: cell-based; details: for Geometric mean, Treatment (Control = 1): MCF7, Figure S6
Procedure: Building on previous findings, we investigated how selected RUN compounds influence proteasomal function itself. Specifically, we examined the chymotrypsin-like activity of the 26S proteasome following a 16 hour treatment with 7.5 μM RUN compounds in the HEK293 cell line. […] In addition, two other cell lines, MCF7 and SH-SY5Y, were measured (see the SI, Fig. S6).
Figure S6: RUN compounds enhance chymotrypsin-like activity of the 26S proteasome in […]
Cells were treated with 5 µM RUN compounds for 16 hours, with DMSO (0.5%) as the vehicle control. Proteasome chymotrypsin-like activity was measured in cell lysates at 37 °C. Four independent experiments were conducted. Statistical analysis was performed using ratio paired t-tests corrected for multiple comparisons with the Holm-Šídák's method (α = 0.05). Detailed results of the analysis are shown in Supplementary Table S16. […]
2.7 Proteasome activity assay
The corresponding cell lines (HEK293, MCF7, or SH-SY5Y) were seeded into 6-well plates and allowed to adhere overnight under standard culture conditions. On the following day, HEK293 cells were treated with 7.5 µM RUN compounds, whereas MCF7 and SH-SY5Y cells were treated with 5 µM RUN compounds, for 16 hours each. After treatment, cells were harvested, resuspended in lysis buffer (50 mM HEPES, pH 7.5; 5 mM EDTA; 150 mM NaCl; 2 mM ATP; 1% Triton), and centrifuged at 15,000 rpm for 15 minutes at 4 °C. The resulting lysates (25 µg total protein) were incubated with 200 µM of the fluorogenic substrate Suc-Leu-Leu-Val-Tyr-AMC (Bachem, I1395) in assay buffer (50 mM Tris, pH 8.0; 10 mM MgCl₂; 1 mM ATP; 1 mM DTT) at 37 °C. Free AMC release was detected by measuring fluorescence at 360/460 nm. Results of RUN compounds were compared to the DMSO control using a ratio paired t-test corrected for multiple comparisons with the Holm-Šídák's method (α = 0.05) in GraphPad Prism (v 10.6.1).
2.8 XBP1-endoplasmic reticulum (ER) stress reporter assay […]
Two sets of comparisons: 1) […]
treatment with MG132 inhibitor or RUN compounds with DMSO control, 2) RUN compounds vs MG132, were done by two-way repeated-measures ANOVA with Geisser–Greenhouse correction, followed by Dunnett’s multiple comparisons test with individual variances in […]
HCT116 parental cells (WT) and two independent DDI2 knockout clones (KO 04 and KO 11), in which NFE2L1 activation is impaired, were transiently transfected with plasmids encoding either a non-aggregating EGFP-HttQ23 or an aggregation-prone EGFP-HttQ74 construct using Lipofectamine 2000 (Thermo Fisher Scientific) according to the manufacturer’s

IRE1/XBP1s = assay: XBP1 endoplasmic reticulum stress reporter assay (CMV-XBP-GLuc); format: cell-based, human; details: Figure S5; for Mean diff, MG132 vs. RUN compound (log2-transformed values) / Mean diff, DMSO vs. treatment (log2-transformed values): Dunnett's multiple comparisons test; for Mean 2 (mean of log2-transformed values, treatment; DMSO = 0): N = 3
From the text: Next, we investigated whether the selected RUN compounds activate the NFE2L1 transcriptional program without triggering the unfolded protein response (UPR), a crucial cellular process induced by the accumulation of unfolded proteins in the endoplasmic reticulum (ER), potentially leading to ER stress. To monitor this, an alternative reporter was used to assess the activation of IRE1/XBP1s.[47] IRE1 is a bifunctional serine/threonine kinase and endoribonuclease embedded in the ER membrane, playing a central role in UPR signaling. Its RNase activity facilitates the splicing of X-box binding protein 1 (XBP1) mRNA. The spliced XBP1 acts as a transcription factor, promoting the re-establishment of ER homeostasis by upregulating genes involved in the ER-associated degradation (ERAD) pathway.[48–50] The reporter contains Gaussia luciferase positioned out of frame downstream of the XBP1 splice site, ensuring that active luciferase translation occurs only in the presence of ER stress.[51,52] Cells transfected with this reporter were treated with RUN compounds at 1, 5, and 10 μM, and luciferase activity was measured.
Figure S5: Impact of RUN compounds on ER stress-induced activation of the XBP1 reporter.
HEK293 cells were transfected with the CMV-XBP-GLuc reporter plasmid and allowed to stabilize overnight. Following stabilization, the cells were treated with MG132 or various concentrations of the test compounds (1, 2, 3, 5, 7.5, and 10 µM) for 16 hours. The Gaussia luciferase signal, which reflects XBP1 mRNA splicing, was adjusted based on cell viability as measured by the alamarBlue assay. Data are represented as Geomean ± GeoSD of three independent experiments ( n = 3. Statistical comparison of MG132 and RUN compounds vs DMSO and RUN compounds vs MG132 was performed on log2-transformed values using two-way repeated-measures ANOVA with Geisser –Greenhouse correction, followed by Dunnett’s multiple comparisons test with individual variances computed for each comparison. Results of the analysis are shown in Supplementary Table S15. […]
GraphPad Prism (v 10.6.1).
2.8 XBP1-endoplasmic reticulum (ER) stress reporter assay
HEK293 cells were seeded in 6-well plates and incubated for 24 hours before being transfected with a plasmid containing the CMV-XBP-Gluc reporter using Lipofectamine 2000.(4) After 6 hours, the transfected cells were subsequently transferred to 384-well plates, stabilized overnight, and treated with the proteasome inhibitor and ER stress inducer MG132 and/or various concentrations of RUN compounds (1, 5, and 10 µM) or vehicle (DMSO) for 16 hours. Luciferase activity was normalized to cell viability, which was assessed using the alamarBlue assay. The results are expressed as the fold change compared with the DMSO control, with the experiment conducted in biological triplicate. […]

Row | SMILES | Geometric mean, Treatment (Control = 1) [1] | Mean diff, MG132 vs. RUN compound (log2-transformed values) (IRE1/XBP1s; 1 µM) | Mean 2 (mean of log2-transformed values, treatment; DMSO = 0) (IRE1/XBP1s; 1 µM) | Mean diff, MG132 vs. RUN compound (log2-transformed values) (IRE1/XBP1s; 5 µM) | Mean 2 (mean of log2-transformed values, treatment; DMSO = 0) (IRE1/XBP1s; 5 µM) | Mean diff, MG132 vs. RUN compound (log2-transformed values) (IRE1/XBP1s; 10 uM) | Mean 2 (mean of log2-transformed values, treatment; DMSO = 0) (IRE1/XBP1s; 10 uM) | Mean diff, DMSO vs. treatment (log2-transformed values) (IRE1/XBP1s; DMSO vs. 1 µM) | Mean diff, DMSO vs. treatment (log2-transformed values) (IRE1/XBP1s; DMSO vs. 5 µM) | Mean diff, DMSO vs. treatment (log2-transformed values) (IRE1/XBP1s; DMSO vs. 10 uM) | Proteasome chymotrypsin-like activity in MCF-7 cells ([1]; 5 μM, 16 h)
1 | COc1ccc(/C=C2\CC(N)C/C(=C\c3ccc(OC)c(OC)c3)C2=O)cc1OC (stereo not shown) [RUN-81] | 1.11 | 2.079 | 0.02701 | 2.509 | 0.216 | 3.74 | 0.2168 | -0.02701 | -0.216 | -0.2168 | –
2 | COc1ccc(/C=C2\CC(NC(=O)C3CCCC3)C/C(=C\c3ccc(OC)c(OC)c3)C2=O)cc1OC (stereo not shown) [RUN-89] | 1.38 | 1.977 | 0.1287 | 1.754 | 0.9716 | 2.213 | 1.744 | -0.1287 | -0.9716 | -1.744 | greatest increase
3 | COc1ccc(/C=C2\CC(NC(=O)c3ccccn3)C/C(=C\c3ccc(OC)c(OC)c3)C2=O)cc1OC (stereo not shown) [RUN-94] | 1.26 | 2.183 | -0.07708 | 1.118 | 1.607 | 2.807 | 1.15 | 0.07708 | -1.607 | -1.15 | –
